Converted amounts (≈) assume the structure as drawn. Where two headings read alike, the source gives them in different places. Where a SMILES comes first, the peptide text is derived from it. Bridges are numbered along the chain shown (N, C = ends).
Assays:
CD4 = molecular target: T1, CD4 (Homo sapiens, UniProt P01730); test: Surface plasmon resonance binding; details: immobilized CD4
T1 construct: Recombinant human soluble CD4 (full-length 45 kDa glycosylated ectodomain); purchased Protein Sciences Corporation, Meriden, Conn; host or cells: ExpresSF+ S. frugiperda cells
Text: Surface plasmon resonance. Recombinant human soluble CD4 (full-length 45 kDa glycosylated ectodomain) was produced by ExpresSF+S. frugiperda cells in serum-free medium (Protein Sciences Corporation, Meriden, Conn.). Glycosylated HIV-1 gp120 (LAV) envelope glycoprotein (Catalog No. 2003-LAV) was purchased from the same source. Recombinant HIV-1BaL was obtained through the AIDS Research and Reference Reagent Program, Division of AIDS, National Institute of Allergy and Infectious Disease, NIH.
Surface plasmon resonance (SPR) experiments were done with a Biacore 2000 system (Biacore, Inc., Piscataway, N.J.). The running buffer (pH 7.4) contained 10 mM HEPES, 150 mM NaCl, 3 mM EDTA and 0.005% polysorbate 20. The immobilized proteins (gp120-LAV and CD4) were dissolved at 20 μg/ml in 10 mM sodium acetate, pH 5.0 and immobilized on a Biacore CM5 sensor chip using the amine coupling method. The chip was activated by mixing 400 mM EDC (N-ethyl-N-(3-dimethylaminopropyl)-carbodiimide hydrochloride) and 100 mM N-hydroxysuccinimide. […] Residual reactive groups on the chip surface were blocked using 1.0 Methanolamine/HCl, pH 8.5.
The flow cell chip used as a control lacked immobilized protein but was otherwise treated as above. Signals were corrected for nonspecific binding by subtracting the control signal. To regenerate the chip surface, bound ligands were removed with 10 mM HCl. Data were analyzed with BIAevaluation 3.1 software. Curve fitting was done with an assumption of 1:1 binding.
In those experiments, biosensor chips containing immobilized gp120 or CD4 were perfused with a 1 μg/ml solution of the peptides, and binding was measured by surface plasmon resonance. […] No binding studies were performed with gp120 preparations derived from non-B HIV-1 subtypes.

primary HIV-1 isolates = details: for IC50: read-out: mean IC50; for IC50 / mean IC50: seven subtype B strains
Text: Viral isolates. Primary HIV-1 isolates were obtained from Institutional Review Board-approved Centers for Disease Control and Prevention (CDC) Studies or from the National Institutes of Health Research and Reference Reagent Program and World Health Organization collaborative network. Detailed characteristics of the CDC isolates, including subtype determination based on the envelope region, and co-receptor usage using GHOST cell lines have been described elsewhere. For viruses obtained from the NIH Research and Reference Reagent Program, the reported subtype and co-receptor data were used as supplied. Viral stocks were generated by infecting CD8-depleted normal human peripheral blood mononuclear cells. After filtration through 0.22-μm filters, aliquots of the stocks were stored at −70° C. until used.
Reporter gene-based viral replication assay. JC53-BL cells, an HIV-1 reporter cell line derived from HeLa cells that expresses high levels of CD4 and the HIV co-receptors CXCR4 and CCR5, were a gift of Tranzyme Inc. (Birmingham, Ala.). The JC53-BL cells contain cassettes for luciferase and β-galactosidase, each driven by the HIV-1 LTR. HIV infection (tat production) can be detected either by measuring luciferase activity or by counting blue foci after staining the cells with “X-Gal” (5-Bromo-4-chloro-3-indolyl β-D-galactopyranoside), as described elsewhere in detail. The JC53-BL cells were maintained in Dulbecco's modified Eagle medium supplemented with 10% fetal calf serum. (HyClone, Logan, Utah), 2 mM glutamine (Gibco), 100 units per ml penicillin G and 100 μg/ml streptomycin (GIBCO™, Invitrogen Corp., San Diego, Calif.). Viral titers were determined by adding serial dilutions of the virus stocks, in triplicate, to wells containing 20,000 JC53-BL cells, after supplementing the above medium with 40 μg/ml DEAE (diethylaminoethyl)-dextran. After a 48 hour incubation at 37° C. in 5% CO2, the cells were fixed and stained for β galactosidase, and the blue foci were counted with a light microscope. Multiplicity of infection (MOI) values were taken from the infectious unit data.
In vitro infections were carried out in the presence or absence of θ-defensin peptides. Briefly, JC53-BL cells were harvested from T-150 flasks approximately 18 hours prior to starting the assay with 0.1 mM EDTA in 0.017 M PBS, pH 7.4. The cells were washed and transferred to sterile white 96-well plates (Thermo Labsystems, Franklin, Mass.) at a density of 20,000 cells in 50 μl of medium. […] After this 3-hour preincubation with peptides, viruses were added in media containing 40 μg/ml DEAE-dextran. The final volume was 200 μl per well, and the multiplicity of infection (viruses/cell) ranged from 0.009 to 0.65. After the plates had incubated at 37° C. in 5% CO2 for 48 hours, luciferase activity was measured with the Steady-Glo Luciferase Assay System (Promega, Madison, Wis.), using the manufacturer's lysis protocol. Relative light intensity was measured with a Tecan luminometer running Magellan software (Tecan, Research Triangle Park, N.C.) and reported as relative light units (RLU). Each plate contained three sets of quadruplicate controls: media-only (background), virus-only (peptide-free), and recombinant luciferase. Samples were run in duplicate and the % inhibition was calculated from the mean values using the formula: % Inhibition=1−(average RLU peptide+virus wells/average RLU virus only wells)×100.
Fifty-percent inhibitory concentration values (IC50) were calculated using the predicted exponential growth function in Microsoft Excel, which uses known x-y values to estimate a given x value (in this case concentration of peptide) that would correspond to a given y value (in this case IC50). Statistical comparisons were by paired t-tests, unless otherwise noted.

[1] = isolate 92BR023, subtype C/B, R5
[2] = isolate 92HT593, Haiti, subtype B, X4
[3] = isolate 92RW009, subtype C/A, R5/X4
[4] = isolate 92UG005, Uganda, subtype D, R5
[5] = isolate 93TH060, Thailand, CRF01-AE, R5
[6] = isolate 93UG053, Uganda, subtype D, R5
[7] = isolate 93US151, USA, subtype B, X4
[8] = isolate 98CN009, China, subtype C, R5
[9] = isolate 98TZ017, Tanzania, subtype C, R5
[10] = isolate 5157-1326, USA, subtype B, R5
[11] = isolate 192431, Nigeria, subtype C, X4
[12] = isolate 193358, Nigeria, subtype C, R5
[13] = isolate 196531, Cameroon, subtype A, R5
[14] = isolate 196554, Senegal, subtype A, R5
[15] = isolate HM14, Thailand, CRF01-AE, X4

| SMILES | koff (CD4) [s⁻¹] | kon (CD4) [M⁻¹ s⁻¹] | IC50 (mean±SEM, n=8) (primary HIV-1 isolates) [µg/mL] | IC50 Concentrations (primary HIV-1 isolates; [1]) [µg/mL] | IC50 Concentrations (primary HIV-1 isolates; [2]) [µg/mL] | IC50 Concentrations (primary HIV-1 isolates; [3]) [µg/mL] | IC50 Concentrations (primary HIV-1 isolates; [4]) [µg/mL] | IC50 Concentrations (primary HIV-1 isolates; [5]) [µg/mL] | IC50 Concentrations (primary HIV-1 isolates; [6]) [µg/mL] | IC50 Concentrations (primary HIV-1 isolates; [7]) [µg/mL] | IC50 Concentrations (primary HIV-1 isolates; [8]) [µg/mL] | IC50 Concentrations (primary HIV-1 isolates; [9]) [µg/mL] | IC50 Concentrations (primary HIV-1 isolates; [10]) [µg/mL] | IC50 Concentrations (primary HIV-1 isolates; [11]) [µg/mL] | IC50 Concentrations (primary HIV-1 isolates; [12]) [µg/mL] | IC50 Concentrations (primary HIV-1 isolates; [13]) [µg/mL] | IC50 Concentrations (primary HIV-1 isolates; [14]) [µg/mL] | IC50 Concentrations (primary HIV-1 isolates; [15]) [µg/mL] | IC50 (primary HIV-1 isolates) [nM] | mean IC50 (primary HIV-1 isolates) | further results |
| --- | --- | --- | --- | --- | --- | --- | --- | --- | --- | --- | --- | --- | --- | --- | --- | --- | --- | --- | --- | --- | --- |
| CC[C@H](C)[C@@H]1NC(=O)CNC(=O)[C@H](CCCNC(=N)N)NC(=O)CNC(=O)[C@@H]2CSSC[C@H](NC1=O)C(=O)N[C@@H](CCCNC(=N)N)C(=O)N[C@H]1CSSC[C@H](NC(=O)[C@H](CCCNC(=N)N)NC(=O)[C@@H]3CSSC[C@H](NC(=O)[C@H]([C@@H](C)CC)NC1=O)C(=O)NCC(=O)N[C@@H](CCCNC(=N)N)C(=O)NCC(=O)N[C@@H]([C@@H](C)CC)C(=O)N3)C(=O)N[C@@H]([C@@H](C)CC)C(=O)N2 [RC-100, Retrocyclin] (cyclo(GICRCICGRGICRCICGR); disulfide 3-16, 5-14, 7-12) | 0.0022 | 67700 | 7.79 ± 1.16 (≈ 4.06 µM) | 4.71 (≈ 2.46 µM) | 5.73 (≈ 2.99 µM) | 8.72 (≈ 4.55 µM) | 5.18 (≈ 2.7 µM) | 7.39 (≈ 3.85 µM) | 6.38 (≈ 3.33 µM) | 1.69 (≈ 0.881 µM) | >10 | >10 | 4.64 (≈ 2.42 µM) | 5.18 (≈ 2.7 µM) | >10 | >10 | 5.73 (≈ 2.99 µM) | 3.09 (≈ 1.61 µM) | ~2600 | approximately 5.0 μg/ml | IC50 Concentrations (primary HIV-1 isolates; isolate 92RW024, subtype D/A, R5): 7.78 µg/mL (≈ 4.06 µM); IC50 Concentrations (primary HIV-1 isolates; isolate 92UG037, Uganda, subtype A, R5): 1.44 µg/mL (≈ 0.751 µM); IC50 Concentrations (primary HIV-1 isolates; isolate 92US714, USA, subtype B, R5): >10 µg/mL; IC50 Concentrations (primary HIV-1 isolates; isolate 92US727, USA, subtype B, R5): 6.46 µg/mL (≈ 3.37 µM); IC50 Concentrations (primary HIV-1 isolates; isolate 93UG059, subtype A/D, X4): 6.65 µg/mL (≈ 3.47 µM); IC50 Concentrations (primary HIV-1 isolates; isolate 94UG114, Uganda, subtype D, R5): 3.69 µg/mL (≈ 1.92 µM); IC50 Concentrations (primary HIV-1 isolates; isolate 5148-1382, USA, subtype B, R5): 5.71 µg/mL (≈ 2.98 µM); IC50 Concentrations (primary HIV-1 isolates; isolate 5157-35097, USA, subtype B, R5X4): 6.29 µg/mL (≈ 3.28 µM); IC50 Concentrations (primary HIV-1 isolates; isolate 193317, Nigeria, subtype A, X4): >10 µg/mL; IC50 Concentrations (primary HIV-1 isolates; isolate RU132, Russia, subtype G, R5): 5.27 µg/mL (≈ 2.75 µM); IC50 Concentrations (primary HIV-1 isolates; isolate RU570, subtype G, R5): 8.63 µg/mL (≈ 4.5 µM) |
| CC[C@H](C)[C@@H]1NC(=O)CNC(=O)[C@H](CCCCN)NC(=O)CNC(=O)[C@@H]2CSSC[C@H](NC1=O)C(=O)N[C@@H](CCCNC(=N)N)C(=O)N[C@H]1CSSC[C@H](NC(=O)[C@H](CCCNC(=N)N)NC(=O)[C@@H]3CSSC[C@H](NC(=O)[C@H]([C@@H](C)CC)NC1=O)C(=O)NCC(=O)N[C@@H](CCCNC(=N)N)C(=O)NCC(=O)N[C@@H]([C@@H](C)CC)C(=O)N3)C(=O)N[C@@H]([C@@H](C)CC)C(=O)N2 [RC-101, R9K-Retrocyclin] | 0.00226 | 79000 | 2.93 ± 0.95 (≈ 1.55 µM) | 3.04 (≈ 1.61 µM) | 0.76 (≈ 0.402 µM) | 2.72 (≈ 1.44 µM) | 1 (≈ 0.529 µM) | 2.15 (≈ 1.14 µM) | 1.54 (≈ 0.815 µM) | 0.49 (≈ 0.259 µM) | 8.53 (≈ 4.51 µM) | 4.87 (≈ 2.58 µM) | 3.59 (≈ 1.9 µM) | 0.54 (≈ 0.286 µM) | 2.75 (≈ 1.45 µM) | 2.65 (≈ 1.4 µM) | 0.51 (≈ 0.27 µM) | 0.84 (≈ 0.444 µM) | < 660 | < 1.25 µg/mL | protective activity compared with retrocyclin-1 (primary HIV-1 isolates): more active than retrocyclin-1; protective activity compared with retrocyclin-1 (primary HIV-1 isolates; subtype D strains, 1.25, 2.5, 5 and 10 μg/ml): more active than retrocyclin-1; protective activity compared with retrocyclin-1 (primary HIV-1 isolates; subtype G and various recombinant viruses): greater protection than retrocyclin-1 |

From patent publication US7314858B2, “Retrocyclins: antiviral and antimicrobial peptides” (priority 2001, dated 2008)
